Key:
[1] = tested on: endogenous interferon; experiment: Interferon inducing activity in vivo during oral administration to mice; details: 5.0 mg/mouse, background 7-10 units
[2] = tested on: endogenous interferon; experiment: Interferon inducing activity in vivo during intragastric administration to mice; details: 1000 μg/mouse, background 7-10 units
[3] = Concentration in blood plasma of rabbits during vaginal administration (vaginal suppositories 0.1 g); type: in vivo
Procedure: Concentration in blood plasma of the experimental animals during vaginal administration of the inventive substance.
The results of measuring the concentration of the substance in blood plasma of rabbits during vaginal administration in the form of “vaginal suppositories 0.1 g” are shown on the provided diagram in the form of averaged pharmacokinetic curves (see FIG. 1). After inserting the suppository, the substance began to enter the general blood circulation after approximately 15 minutes; after 1 hour the concentration of the substance in the blood reached its maximum (approximately 120 μg/ml); then it was gradually excreted from the organism, and 24 hours after its administration the detected presence of the substance in blood plasma was minimal (approximately 20 μg/ml). The dispersion of individual values was moderate: coefficient of variation CV amounted to 13-22%.

Time at which concentration in the blood reached its maximum [3]: 1 h
Time until the substance began to enter the general blood circulation [3]: approximately 15 minutes
Maximum concentration of the substance in the blood ([3]; after 1 hour): approximately 120 μg/ml
concentration at 24 h ([3]; rabbit, plasma, other: vaginal, 24 hours, read-out: Concentration of the substance in blood plasma 24 hours after administration): ~20 µg/mL
Compound: COC(=O)c1cccc(Nc2cc(=O)[nH]c(=O)[nH]2)c1 [The inventive substance, monomer, 6-(3-methoxycarbonylphenyl) amino-2,4 (1H, 3H)-pyrimidinedione]
Interferon inducing activity, 2 hours ([1]; 2 hours): 18 IU
Interferon inducing activity, 4 hours ([1]; 4 hours): 120 IU
Interferon inducing activity, 6 hours ([1]; 6 hours): 20 IU
Interferon inducing activity, 8 hours ([1]; 8 hours): 40 IU
Interferon inducing activity, 24 hours ([1]; 24 hours): 100 IU
Interferon inducing activity, 2 hours ([2]; 2 hours): 30 IU
Interferon inducing activity, 4 hours ([2]; 4 hours): 10 IU
Interferon inducing activity, 6 hours ([2]; 6 hours): 160 IU
Interferon inducing activity, 8 hours ([2]; 8 hours): 25-30 IU
Interferon inducing activity, 24 hours ([2]; 24 hours): 30 IU

From patent US10029990B2, “Agent for inducing endogenous interferon” (priority 2010, dated 2018)
